Laboratory results reported in US7705002B2, “Biaryls useful as modulators of ion channels” (Vertex Pharmaceuticals Incorporated, priority 2005, dated 2010).
Like-named read-outs stand apart in the source and are kept apart here.

Legend:
NaV1.8 [1] = target: T1, NaV1.8 (Homo sapiens, UniProt Q9Y5Y9); conditions: read-out: TTX IC50; cited from earlier work
NaV1.8 [2] = target: T1, NaV1.8; assay: Activity against NaV 1.8 channel (Table 4); assay type: cell-based
Method: Compounds of the invention are useful as antagonists of voltage-gated sodium ion channels. Antagonist properties of test compounds were assessed as follows. Cells expressing the NaV of interest were placed into microtiter plates. After an incubation period, the cells were stained with fluorescent dyes sensitive to the transmembrane potential. The test compounds were added to the microtiter plate. The cells were stimulated with either a chemical or electrical means to evoke a NaV dependent membrane potential change from unblocked channels, which was detected and measured with trans-membrane potential-sensitive dyes. Antagonists were detected as a decreased membrane potential response to the stimulus. The optical membrane potential assay utilized voltage-sensitive FRET sensors described by Gonzalez and Tsien (See, Gonzalez, J. E. and R. Y. Tsien (1995) “Voltage sensing by fluorescence resonance energy transfer in single cells” Biophys J 69(4): 1272-80, and Gonzalez, J. E. and R. Y. Tsien (1997) “Improved indicators of cell membrane potential that use fluorescence resonance energy transfer” Chem Biol 4(4): 269-77) in combination with instrumentation for measuring fluorescence changes such as the Voltage/Ion Probe Reader (VIPR®) (See, Gonzalez, J. E., K. Oades, et al. (1999) “Cell-based assays and instrumentation for screening ion-channel targets” Drug Discov Today 4(9): 431-439).
24 hours before the assay on VIPR, CHO cells endogenously expressing a NaV1.2 type voltage-gated NaV are seeded in 96-well poly-lysine coated plates at 60,000 cells per well. […] The cells are then incubated for 20-30 minutes. • 7) Once the incubation is complete, the cells are ready to be assayed on VIPR® with a sodium addback protocol. […]
Control responses are obtained by performing assays in the presence of a compound with the desired properties (positive control), such as tetracaine, and in the absence of pharmacological agents (negative control). Responses to the negative (N) and positive (P) controls are calculated as above. […]

[3] = in vivo; cited from earlier work

T1 sequence (Q9Y5Y9 whole entry, looked up): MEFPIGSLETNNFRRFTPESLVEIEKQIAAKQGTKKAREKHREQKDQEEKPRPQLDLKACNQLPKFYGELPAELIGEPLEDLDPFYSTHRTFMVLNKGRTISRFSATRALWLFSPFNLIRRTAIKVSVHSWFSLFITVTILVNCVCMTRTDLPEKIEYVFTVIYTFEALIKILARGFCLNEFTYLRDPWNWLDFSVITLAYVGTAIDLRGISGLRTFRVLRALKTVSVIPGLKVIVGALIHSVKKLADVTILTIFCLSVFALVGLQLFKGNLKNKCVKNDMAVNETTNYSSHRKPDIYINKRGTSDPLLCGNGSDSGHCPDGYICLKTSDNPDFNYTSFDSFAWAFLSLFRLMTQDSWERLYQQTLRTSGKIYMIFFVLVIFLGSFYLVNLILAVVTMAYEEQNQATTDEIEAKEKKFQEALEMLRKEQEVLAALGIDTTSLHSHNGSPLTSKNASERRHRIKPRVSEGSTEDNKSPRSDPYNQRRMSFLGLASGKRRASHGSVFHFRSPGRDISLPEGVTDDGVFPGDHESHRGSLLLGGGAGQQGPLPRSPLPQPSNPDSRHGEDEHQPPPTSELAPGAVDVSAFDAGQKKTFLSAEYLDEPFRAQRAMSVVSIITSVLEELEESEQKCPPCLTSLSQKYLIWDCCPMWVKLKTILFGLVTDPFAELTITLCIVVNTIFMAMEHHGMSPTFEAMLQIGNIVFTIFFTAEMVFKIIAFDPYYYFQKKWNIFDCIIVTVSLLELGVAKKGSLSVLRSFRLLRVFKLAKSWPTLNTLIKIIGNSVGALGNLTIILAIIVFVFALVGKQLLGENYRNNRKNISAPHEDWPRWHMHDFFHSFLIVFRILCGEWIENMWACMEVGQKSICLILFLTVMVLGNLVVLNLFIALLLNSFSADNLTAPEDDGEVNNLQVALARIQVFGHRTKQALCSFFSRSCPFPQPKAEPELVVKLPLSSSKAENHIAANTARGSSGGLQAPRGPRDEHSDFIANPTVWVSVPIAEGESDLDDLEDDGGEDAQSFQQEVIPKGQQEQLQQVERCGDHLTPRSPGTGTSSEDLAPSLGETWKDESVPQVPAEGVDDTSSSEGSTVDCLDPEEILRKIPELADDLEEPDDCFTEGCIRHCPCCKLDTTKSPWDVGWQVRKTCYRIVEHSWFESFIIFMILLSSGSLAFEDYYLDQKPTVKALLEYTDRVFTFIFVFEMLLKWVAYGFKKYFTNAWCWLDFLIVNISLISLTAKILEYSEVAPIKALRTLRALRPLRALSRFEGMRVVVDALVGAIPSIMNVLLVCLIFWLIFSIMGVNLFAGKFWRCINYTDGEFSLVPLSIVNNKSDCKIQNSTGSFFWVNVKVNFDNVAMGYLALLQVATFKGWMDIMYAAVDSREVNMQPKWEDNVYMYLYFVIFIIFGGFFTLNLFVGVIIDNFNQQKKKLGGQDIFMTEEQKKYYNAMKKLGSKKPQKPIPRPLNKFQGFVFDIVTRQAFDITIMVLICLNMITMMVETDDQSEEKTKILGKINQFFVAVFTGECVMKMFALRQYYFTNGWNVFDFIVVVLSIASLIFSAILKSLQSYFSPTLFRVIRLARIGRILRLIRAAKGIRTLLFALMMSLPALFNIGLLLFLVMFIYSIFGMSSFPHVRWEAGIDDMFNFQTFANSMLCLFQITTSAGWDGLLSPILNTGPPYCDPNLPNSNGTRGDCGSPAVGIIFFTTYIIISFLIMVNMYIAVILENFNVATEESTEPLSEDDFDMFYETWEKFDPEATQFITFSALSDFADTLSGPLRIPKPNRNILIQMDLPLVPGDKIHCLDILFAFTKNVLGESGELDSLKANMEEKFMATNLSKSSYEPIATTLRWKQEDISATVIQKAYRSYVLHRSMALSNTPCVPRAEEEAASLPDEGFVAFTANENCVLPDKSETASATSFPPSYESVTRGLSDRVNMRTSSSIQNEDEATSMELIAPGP

**Q.** Which IC50 (NaV1.8 [1]) does the source give for NC1=N[C@H](O)[C@H]2[C@H]3O[C@]4(O)O[C@@H]([C@@H](O)[C@@]2(N1)[C@@H]4O)[C@]3(O)CO [TTX, tetrodotoxin] here?
**A.** > 50 µM

**Q.** For CC(C)COC(=O)N1CCN(c2cccc(-c3ccccc3O)c2)CC1 [Compound 3, 4-[3-(2-hydroxyphenyl)phenyl]piperazine-1-carboxylic acid isobutyl ester], which IC50 (NaV1.8 [2]) is on record?
**A.** > 15 µM

**Q.** With CC(C)CC(O)C(=O)N1CCN(c2cccc(-c3ccccc3O)c2)CC1 (centres unmarked) [Compound 1, 2-hydroxy-1-[4-[3-(2-hydroxyphenyl)phenyl]piperazin-1-yl]-4-methyl-pentan-1-one] as the compound, how does the IC50 (NaV1.8 [2]) read?
**A.** > 15 µM

**Q.** With NCC1(CC(=O)O)CCCCC1 [Gabapentin] as the compound, how does the “share of patients in which it works” value [3] read?
**A.** 60%

**Q.** With CC(C)C[C@@H](O)C(=O)N1CCN(c2cccc(-c3ccccc3C(F)F)c2)CC1 [Compound 2, 1-[4-[3-[2-(difluoromethyl)phenyl]phenyl]piperazin-1-yl]-2-hydroxy-4-methyl-pentan-1-one] as the compound, how does the IC50 (NaV1.8 [2]) read?
**A.** < 10 µM
